Reference: patent publication US20240229097A1, “SYSTEM, METHOD, DEVICE AND MANUFACTURING METHOD THEREOF FOR DETECTING CELLULAR MECHANICAL FORCE” (Ruixin (Fuzhou) Technology Co., Ltd., priority 2021, published 2024)

Legend:
Format in all cases: cell-based
[1] = tested on: non-small cell lung cancer cells A549; assay: MTT assay of cell viability of A549 cells treated with 5FU
Source text: (§1) Specifically, this embodiment cultures non-small cell lung cancer cells A549 on multiple device for detecting cellular mechanical force, treats them with different doses of the cell proliferation inhibitor 5-fluorouracil (5-FU), and monitors cellular mechanical forces at different time points using the system for detecting cellular mechanical force or the method described in the tenth to twelfth embodiments or the fourteenth embodiment. Cell proliferation and cytotoxicity are monitored at different time points using the CCK-8 assay kit, with cell viability measured by the MTT assay serving as a control, generating the data for FIGS. 16,b and c.

[2] = tested on: non-small cell lung cancer cells A549; assay: Cell viability reflected by cellular mechanical force (micropillar light reflection device), A549 cells treated with 5FU
Source text: This embodiment specifically provides using the cellular mechanical force information obtained from any of the system for detecting cellular mechanical force described in the tenth to twelfth embodiments or the cellular mechanical force detection method described in the fourteenth embodiment to monitor cell viability.
as §1

[3] = tested on: breast cancer cells MCF-7 multicellular aggregates; assay: 5-Fu drug sensitivity test on tumor cell multicellular aggregates on the cellular mechanical force detection device; conditions: MCF-7 aggregates, 200 μM 5-Fu, cultured for one day, FIG. 18
Protocol: More specifically, this embodiment provides a method for culturing a tumor cell multicellular aggregate on the device for detecting cellular mechanical force for drug sensitivity test, including the steps:
S1, Generation of tumor cell multicellular aggregates: FN 50 μg/mL is applied to the top of the micropillar of the device for detecting cellular mechanical force and sterilized with UV for 30 minutes; breast cancer cells MCF-7 (approximately 1×10^5 to 9×10^5 cells) are seeded on the top surface of the micropillars (number of micropillars is not limited) of the device for detecting cellular mechanical force, which is then immersed in 3dGRO™ Spheroid Medium (S3077) for more than 3 days to induce the formation of tumor cell multicellular aggregates.
S2, Applying the generated tumor cell multicellular aggregates to a 5-Fu drug sensitivity test: 200 μM of 5-Fu is added to the tumor cell multicellular aggregates and cultured for one day; in the test, before the addition of 5-Fu and one day of culture after the addition of 5-Fu on the device for detecting cellular mechanical force (with tumor cell multicellular aggregates, including the culture medium), light reflection signals are captured by the light signal detection device (CCD sensor) and cellular mechanical force distribution images are obtained using the light signal analysis device (ImageJ), as shown in FIG. 18. […]

[4] = different doses of 5FU, FIGS. 16,b and c

## O=c1[nH]cc(F)c(=O)[nH]1 [5FU, 5-fluorouracil]
[1]; [4]
  cell viability measured by the conventional MTT assay: dose-dependent decline
[1]; within 12 hours of 5FU treatment, FIG. 16,c
  change in cell viability by MTT assay: no significant change
[2]; 0.5 μM treatment dose
  time at which a significant decrease trend of cellular mechanical force is observed: 6 h
[2]; 1 μM treatment dose
  time at which a significant decrease trend of cellular mechanical force is observed: 3 h
[2]; different doses of 5FU for 24 hours, relative to MTT assay, FIG. 16,b
  cellular viability reflected by mechanical force compared to the control group (DMSO): greater reduction
[2]; [4]
  cell viability reflected by cellular mechanical forces: dose-dependent decline
[3]
  cell viability of tumor cell multicellular aggregates: reduced
  reflection signals of tumor cell multicellular aggregates: noticeably weaken
